“And” between values parts separate entries of the source, which are not always exact repeats. Identical values can stand only once. “Also recorded” adds a separate entry of the source.
Key:
[1] = Dynamic micro PET-CT imaging, tracer uptake in brain, muscle and bone; type: in vivo, CD-1 mice; conditions: for Bone uptake throughout the scan period (defluorination) / Uptake throughout the periphery of the body (liver, kidneys, heart) / Brain uptake after steady clearance of tracer / Crossing of the blood-brain-barrier / Peak brain uptake / Time of peak brain uptake post injection / Clearance from the brain: CD-1 male mice; for Bone uptake throughout the scan period (defluorination): 60-min scan; for Uptake throughout the periphery of the body (liver, kidneys, heart): PET; for Brain uptake after steady clearance of tracer: at 59.5 min post injection; for Crossing of the blood-brain-barrier / Peak brain uptake / Time of peak brain uptake post injection: dynamic PET; for Peak brain uptake / Time of peak brain uptake post injection: i.v.; for Bone Mean % ID/g / Brain Mean % ID/g / Muscle Mean % ID/g: male CD-1 mice, iv; for Clearance from the brain: by 60 minutes post injection, relative to muscle
Description: (§1) A Siemens Inveon® Multimodality Scanner (Siemens, Germany) is used for micro PET-CT imaging. Male CD-1 (6-week-old, ˜30 g) mice are anesthetized with 3% isoflurane/97% oxygen and placed on the bed of the scanner. The mice are administered [^18F]N-(4-(1,2,4,5-tetrazin-3-yl)benzyl)-2-fluoronicotinamide via a bolus intravenous tail vein injection (˜350 ρCi in a total volume of 150 μL saline). A total of four dynamic PET scans are conducted, followed by a short high-resolution CT scan for anatomical registration. PET images are generated for each minute of the acquisition time. Uptake of the tracer in the brain, muscle, and bone are determined by visually drawing regions of interest (ROIs) based on the fused PET/CT images and the corresponding activity values are determined using the Inveon® Research Workplace software. All values are represented as % injected dose per gram (% ID/g).
as §1, with “g) mice were anesthetized with” for “g) mice are anesthetized with”, “are administered [^18F]N-(4-(1,2,4,5-tetrazin-3-yl)benzyl)-6-fluoropicolinamide via a” for “are administered [^18F]N-(4-(1,2,4,5-tetrazin-3-yl)benzyl)-2-fluoronicotinamide via a”, “vein injection (˜300 ρCi in” for “vein injection (˜350 ρCi in”
as §1, with “PET/CT” for “PET-CT”, “30-40” for “˜30”, “[^18F]N-(4-(1,2,4,5-tetrazin-3-yl)benzyl)-6-fluoronicotinamide” for “[^18F]N-(4-(1,2,4,5-tetrazin-3-yl)benzyl)-2-fluoronicotinamide”, “(˜300” for “(˜350”, “two” for “four”

[2] = Stability of the tetrazine moiety in ascorbate formulation; type: physicochemical
[3] = listed as [^18F]N-(4-(1,2,4,5-tetrazin-3-yl)benzyl)-6-fluoropicolinamide

SMILES: O=C(NCc1ccc(-c2nncnn2)cc1)c1ccc([18F])nc1 [Comparative Example 6, [^18]FN-(4-(1,2,4,5-tetrazin-3-yl)benzyl)-6-fluoronicotinamide]
- Bone uptake throughout the scan period (defluorination) [1]: remained low
- Uptake throughout the periphery of the body (liver, kidneys, heart) [1]: readily observed
- Brain uptake after steady clearance of tracer [1]: 1.1 % ID/g
- Crossing of the blood-brain-barrier [1]: crosses the blood-brain-barrier
- Peak brain uptake [1]: 2.6 % ID/g
- Time of peak brain uptake post injection [1]: 2.5 min
- Bone Mean % ID/g ([1]; Time 0.5 min): 0.00 % ID/g
- Brain Mean % ID/g ([1]; Time 0.5 min): 0.00 % ID/g
- Muscle Mean % ID/g ([1]; Time 0.5 min): 0.00 % ID/g
- Bone Mean % ID/g ([1]; Time 1.5 min): 0.09 % ID/g
- Brain Mean % ID/g ([1]; Time 1.5 min): 0.52 % ID/g
- Muscle Mean % ID/g ([1]; Time 1.5 min): 0.07 % ID/g
- Bone Mean % ID/g ([1]; Time 2.5 min): 0.83 % ID/g
- Brain Mean % ID/g ([1]; Time 2.5 min): 2.57 % ID/g
- Muscle Mean % ID/g ([1]; Time 2.5 min): 0.56 % ID/g
- Bone Mean % ID/g ([1]; Time 3.5 min): 0.95 % ID/g
- Brain Mean % ID/g ([1]; Time 3.5 min): 2.45 % ID/g
- Muscle Mean % ID/g ([1]; Time 3.5 min): 0.67 % ID/g
- Bone Mean % ID/g ([1]; Time 4.5 min): 0.85 % ID/g
- Brain Mean % ID/g ([1]; Time 4.5 min): 2.29 % ID/g
- Muscle Mean % ID/g ([1]; Time 4.5 min): 0.73 % ID/g
- Bone Mean % ID/g ([1]; Time 5.5 min): 0.86 % ID/g
- Brain Mean % ID/g ([1]; Time 5.5 min): 2.20 % ID/g
- Muscle Mean % ID/g ([1]; Time 5.5 min): 0.72 % ID/g
- Bone Mean % ID/g ([1]; Time 6.5 min): 0.90 % ID/g
- Brain Mean % ID/g ([1]; Time 6.5 min): 2.23 % ID/g
- Muscle Mean % ID/g ([1]; Time 6.5 min): 0.80 % ID/g
- Bone Mean % ID/g ([1]; Time 7.5 min): 0.90 % ID/g
- Brain Mean % ID/g ([1]; Time 7.5 min): 2.15 % ID/g
- Muscle Mean % ID/g ([1]; Time 7.5 min): 0.84 % ID/g
- Bone Mean % ID/g ([1]; Time 8.5 min): 0.90 % ID/g
- Brain Mean % ID/g ([1]; Time 8.5 min): 2.10 % ID/g
- Muscle Mean % ID/g ([1]; Time 8.5 min): 0.84 % ID/g
- Bone Mean % ID/g ([1]; Time 9.5 min): 0.81 % ID/g
- Brain Mean % ID/g ([1]; Time 9.5 min): 2.00 % ID/g
- Muscle Mean % ID/g ([1]; Time 9.5 min): 0.78 % ID/g
- Bone Mean % ID/g ([1]; Time 10.5 min): 0.90 % ID/g
- Brain Mean % ID/g ([1]; Time 10.5 min): 1.95 % ID/g
- Muscle Mean % ID/g ([1]; Time 10.5 min): 0.79 % ID/g
- Bone Mean % ID/g ([1]; Time 11.5 min): 0.92 % ID/g
- Brain Mean % ID/g ([1]; Time 11.5 min): 1.89 % ID/g
- Muscle Mean % ID/g ([1]; Time 11.5 min): 0.84 % ID/g
- Bone Mean % ID/g ([1]; Time 12.5 min): 0.94 % ID/g
- Brain Mean % ID/g ([1]; Time 12.5 min): 1.86 % ID/g
- Muscle Mean % ID/g ([1]; Time 12.5 min): 0.84 % ID/g
- Bone Mean % ID/g ([1]; Time 13.5 min): 0.97 % ID/g
- Brain Mean % ID/g ([1]; Time 13.5 min): 1.83 % ID/g
- Muscle Mean % ID/g ([1]; Time 13.5 min): 0.88 % ID/g
- Bone Mean % ID/g ([1]; Time 14.5 min): 0.98 % ID/g
- Brain Mean % ID/g ([1]; Time 14.5 min): 1.78 % ID/g
- Muscle Mean % ID/g ([1]; Time 14.5 min): 0.88 % ID/g
- Bone Mean % ID/g ([1]; Time 15.5 min): 0.98 % ID/g
- Brain Mean % ID/g ([1]; Time 15.5 min): 1.76 % ID/g
- Muscle Mean % ID/g ([1]; Time 15.5 min): 0.89 % ID/g
- Bone Mean % ID/g ([1]; Time 16.5 min): 0.83 % ID/g
- Brain Mean % ID/g ([1]; Time 16.5 min): 1.72 % ID/g
- Muscle Mean % ID/g ([1]; Time 16.5 min): 0.93 % ID/g
- Bone Mean % ID/g ([1]; Time 17.5 min): 1.00 % ID/g
- Brain Mean % ID/g ([1]; Time 17.5 min): 1.69 % ID/g
- Muscle Mean % ID/g ([1]; Time 17.5 min): 0.91 % ID/g
- Bone Mean % ID/g ([1]; Time 18.5 min): 0.97 % ID/g
- Brain Mean % ID/g ([1]; Time 18.5 min): 1.65 % ID/g
- Muscle Mean % ID/g ([1]; Time 18.5 min): 0.89 % ID/g
- Bone Mean % ID/g ([1]; Time 19.5 min): 0.93 % ID/g
- Brain Mean % ID/g ([1]; Time 19.5 min): 1.63 % ID/g
- Muscle Mean % ID/g ([1]; Time 19.5 min): 0.90 % ID/g
- Bone Mean % ID/g ([1]; Time 20.5 min): 1.01 % ID/g
- Brain Mean % ID/g ([1]; Time 20.5 min): 1.61 % ID/g
- Muscle Mean % ID/g ([1]; Time 20.5 min): 0.95 % ID/g
- Bone Mean % ID/g ([1]; Time 21.5 min): 0.91 % ID/g
- Brain Mean % ID/g ([1]; Time 21.5 min): 1.58 % ID/g
- Muscle Mean % ID/g ([1]; Time 21.5 min): 0.98 % ID/g
- Bone Mean % ID/g ([1]; Time 22.5 min): 1.02 % ID/g
- Brain Mean % ID/g ([1]; Time 22.5 min): 1.56 % ID/g
- Muscle Mean % ID/g ([1]; Time 22.5 min): 0.95 % ID/g
- Bone Mean % ID/g ([1]; Time 23.5 min): 1.04 % ID/g
- Brain Mean % ID/g ([1]; Time 23.5 min): 1.55 % ID/g
- Muscle Mean % ID/g ([1]; Time 23.5 min): 1.00 % ID/g
- Bone Mean % ID/g ([1]; Time 24.5 min): 1.11 % ID/g
- Brain Mean % ID/g ([1]; Time 24.5 min): 1.51 % ID/g
- Muscle Mean % ID/g ([1]; Time 24.5 min): 0.98 % ID/g
- Bone Mean % ID/g ([1]; Time 25.5 min): 0.93 % ID/g
- Brain Mean % ID/g ([1]; Time 25.5 min): 1.49 % ID/g
- Muscle Mean % ID/g ([1]; Time 25.5 min): 0.99 % ID/g
- Bone Mean % ID/g ([1]; Time 26.5 min): 0.86 % ID/g
- Brain Mean % ID/g ([1]; Time 26.5 min): 1.46 % ID/g
- Muscle Mean % ID/g ([1]; Time 26.5 min): 0.95 % ID/g
- Bone Mean % ID/g ([1]; Time 27.5 min): 0.94 % ID/g
- Brain Mean % ID/g ([1]; Time 27.5 min): 1.45 % ID/g
- Muscle Mean % ID/g ([1]; Time 27.5 min): 0.94 % ID/g
- Bone Mean % ID/g ([1]; Time 28.5 min): 1.00 % ID/g
- Brain Mean % ID/g ([1]; Time 28.5 min): 1.42 % ID/g
- Muscle Mean % ID/g ([1]; Time 28.5 min): 1.00 % ID/g
- Bone Mean % ID/g ([1]; Time 29.5 min): 1.05 % ID/g
- Brain Mean % ID/g ([1]; Time 29.5 min): 1.40 % ID/g
- Muscle Mean % ID/g ([1]; Time 29.5 min): 0.97 % ID/g
- Bone Mean % ID/g ([1]; Time 30.5 min): 0.95 % ID/g
- Brain Mean % ID/g ([1]; Time 30.5 min): 1.38 % ID/g
- Muscle Mean % ID/g ([1]; Time 30.5 min): 0.99 % ID/g
- Bone Mean % ID/g ([1]; Time 31.5 min): 1.04 % ID/g
- Brain Mean % ID/g ([1]; Time 31.5 min): 1.38 % ID/g
- Muscle Mean % ID/g ([1]; Time 31.5 min): 0.95 % ID/g
- Bone Mean % ID/g ([1]; Time 32.5 min): 1.04 % ID/g
- Brain Mean % ID/g ([1]; Time 32.5 min): 1.36 % ID/g
- Muscle Mean % ID/g ([1]; Time 32.5 min): 0.97 % ID/g

SMILES: O=C(NCc1ccc(-c2nncnn2)cc1)c1cccnc1F [Example 1, N-(4-(1,2,4,5-tetrazin-3-yl)benzyl)-2-fluoronicotinamide]
- Reduction of the tetrazine moiety by ascorbate formulation [2]: readily reduced

SMILES: O=C(NCc1ccc(-c2nncnn2)cc1)c1cccc([18F])n1 [Example 4, [^18F]N-(4-(1,2,4,5-tetrazin-3-yl)benzyl)-6-fluoropicolinamide]
- Bone uptake throughout the scan period (defluorination) [1]: remained low
- Uptake throughout the periphery of the body (liver, kidneys, heart) [1]: observed
- Brain uptake after steady clearance of tracer [1]: 1.1 % ID/g
- Clearance from the brain [1]: baseline levels defined by uptake in the muscle
- Clearance from the brain [1, 3]: near background levels (muscle)
- Crossing of the blood-brain-barrier [1]: readily cross the blood-brain-barrier
- Peak brain uptake [1]: 4.3±0.3 % ID/g
- Time of peak brain uptake post injection [1]: approximately 2 min
- Peak brain uptake [1, 3]: 4.3±0.3 % ID/g and 4.3 % ID/g
- Time of peak brain uptake post injection [1, 3]: 2.5 min
- Crossing of the blood-brain-barrier [1, 3]: readily cross the blood-brain-barrier; also recorded: readily crosses the blood-brain-barrier

From patent US20240034722A1, “PRETARGETING IMAGING AGENTS” (Eli Lilly and Company, priority 2020, published 2024)
